Assays:
Pyk2 = Pyk2 (Homo sapiens, UniProt Q14289); test: in vitro kinase assay; assay type: biochemical; settings: read-out: Pyk2 inhibition 1 μM ^a
[1] = molecular target: FAK (focal adhesion kinase) (Homo sapiens, UniProt Q05397); test: in vitro kinase assay, Kinase-Glo luminescence; assay type: biochemical; settings: read-out: FAK inhibition 1 μM ^a
FAK (focal adhesion kinase), sequence (Q05397 2-1052): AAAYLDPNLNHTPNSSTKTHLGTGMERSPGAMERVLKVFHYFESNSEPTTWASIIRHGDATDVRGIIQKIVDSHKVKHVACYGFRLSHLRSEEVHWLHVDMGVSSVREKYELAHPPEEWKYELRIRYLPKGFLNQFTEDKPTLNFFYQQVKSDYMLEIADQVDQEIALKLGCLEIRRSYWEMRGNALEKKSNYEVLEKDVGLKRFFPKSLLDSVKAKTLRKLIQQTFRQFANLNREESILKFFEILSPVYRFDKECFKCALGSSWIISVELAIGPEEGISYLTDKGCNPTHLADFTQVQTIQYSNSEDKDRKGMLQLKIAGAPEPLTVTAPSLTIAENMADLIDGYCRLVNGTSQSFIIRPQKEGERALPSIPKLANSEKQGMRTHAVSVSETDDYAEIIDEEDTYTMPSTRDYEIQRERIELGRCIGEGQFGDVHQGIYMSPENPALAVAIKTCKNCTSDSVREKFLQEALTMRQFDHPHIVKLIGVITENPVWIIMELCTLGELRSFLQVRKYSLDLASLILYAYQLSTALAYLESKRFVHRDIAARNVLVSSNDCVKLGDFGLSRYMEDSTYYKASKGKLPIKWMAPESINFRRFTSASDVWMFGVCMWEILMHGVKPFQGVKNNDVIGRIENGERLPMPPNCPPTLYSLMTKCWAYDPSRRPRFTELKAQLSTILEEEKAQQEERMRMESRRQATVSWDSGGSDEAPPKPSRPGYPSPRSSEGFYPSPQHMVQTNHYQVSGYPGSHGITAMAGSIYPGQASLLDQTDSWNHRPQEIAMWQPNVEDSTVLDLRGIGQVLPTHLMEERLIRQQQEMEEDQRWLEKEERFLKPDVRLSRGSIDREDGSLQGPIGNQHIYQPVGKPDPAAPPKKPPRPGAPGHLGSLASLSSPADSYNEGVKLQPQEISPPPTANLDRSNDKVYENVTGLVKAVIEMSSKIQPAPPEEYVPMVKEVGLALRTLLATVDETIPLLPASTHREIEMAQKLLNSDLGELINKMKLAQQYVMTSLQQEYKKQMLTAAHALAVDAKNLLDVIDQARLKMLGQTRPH

Pyk2, sequence (Q14289 whole entry): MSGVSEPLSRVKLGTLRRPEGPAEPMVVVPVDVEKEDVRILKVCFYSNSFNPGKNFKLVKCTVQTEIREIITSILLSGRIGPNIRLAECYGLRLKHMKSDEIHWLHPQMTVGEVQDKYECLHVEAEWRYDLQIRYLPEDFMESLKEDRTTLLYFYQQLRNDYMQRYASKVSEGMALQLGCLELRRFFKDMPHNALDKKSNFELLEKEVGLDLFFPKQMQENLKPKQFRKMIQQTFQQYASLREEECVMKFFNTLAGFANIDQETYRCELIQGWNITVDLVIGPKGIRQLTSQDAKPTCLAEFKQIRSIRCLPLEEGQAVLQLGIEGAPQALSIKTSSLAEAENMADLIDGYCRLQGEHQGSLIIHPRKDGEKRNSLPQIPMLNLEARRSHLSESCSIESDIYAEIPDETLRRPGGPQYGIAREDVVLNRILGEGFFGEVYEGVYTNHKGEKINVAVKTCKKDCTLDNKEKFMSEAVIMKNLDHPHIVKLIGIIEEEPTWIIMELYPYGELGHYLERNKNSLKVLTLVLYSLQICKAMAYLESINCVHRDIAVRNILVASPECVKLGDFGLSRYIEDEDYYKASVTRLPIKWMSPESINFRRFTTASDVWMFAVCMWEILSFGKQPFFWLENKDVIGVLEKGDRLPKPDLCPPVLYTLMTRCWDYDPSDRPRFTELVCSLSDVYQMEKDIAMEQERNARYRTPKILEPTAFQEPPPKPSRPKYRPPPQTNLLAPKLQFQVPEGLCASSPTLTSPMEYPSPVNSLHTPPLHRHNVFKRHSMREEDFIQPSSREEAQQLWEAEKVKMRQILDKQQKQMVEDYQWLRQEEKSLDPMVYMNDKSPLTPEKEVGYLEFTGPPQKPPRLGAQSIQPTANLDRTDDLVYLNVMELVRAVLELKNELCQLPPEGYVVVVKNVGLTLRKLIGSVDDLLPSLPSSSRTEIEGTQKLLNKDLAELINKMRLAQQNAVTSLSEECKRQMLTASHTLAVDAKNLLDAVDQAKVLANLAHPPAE

With `c1nc2nc(Nc3ccc(N4CCOCC4)cc3)nc(NC3CCCCC3)c2[nH]1` [reversine] the inhibition at 1 µM (Pyk2) was 82% and the inhibition at 1 µM [1] was 70%.

— publication PMC3844920 (British Journal of Cancer, 2013)
